The source of these data is PMC12621202, “RTx-303, an Orally Bioavailable Polθ Polymerase Inhibitor That Potentiates PARP Inhibitors in BRCA Mutant Tumors” (Journal of Medicinal Chemistry, 2025).

For data set [1], the target named is T1, recombinant human Polθ-pol (Homo sapiens, UniProt O75417).
T1 construct: purified recombinant human Polθ-pol (comprising amino acid residues 1792–2590); made in house
T1 sequence (O75417 1792-2590): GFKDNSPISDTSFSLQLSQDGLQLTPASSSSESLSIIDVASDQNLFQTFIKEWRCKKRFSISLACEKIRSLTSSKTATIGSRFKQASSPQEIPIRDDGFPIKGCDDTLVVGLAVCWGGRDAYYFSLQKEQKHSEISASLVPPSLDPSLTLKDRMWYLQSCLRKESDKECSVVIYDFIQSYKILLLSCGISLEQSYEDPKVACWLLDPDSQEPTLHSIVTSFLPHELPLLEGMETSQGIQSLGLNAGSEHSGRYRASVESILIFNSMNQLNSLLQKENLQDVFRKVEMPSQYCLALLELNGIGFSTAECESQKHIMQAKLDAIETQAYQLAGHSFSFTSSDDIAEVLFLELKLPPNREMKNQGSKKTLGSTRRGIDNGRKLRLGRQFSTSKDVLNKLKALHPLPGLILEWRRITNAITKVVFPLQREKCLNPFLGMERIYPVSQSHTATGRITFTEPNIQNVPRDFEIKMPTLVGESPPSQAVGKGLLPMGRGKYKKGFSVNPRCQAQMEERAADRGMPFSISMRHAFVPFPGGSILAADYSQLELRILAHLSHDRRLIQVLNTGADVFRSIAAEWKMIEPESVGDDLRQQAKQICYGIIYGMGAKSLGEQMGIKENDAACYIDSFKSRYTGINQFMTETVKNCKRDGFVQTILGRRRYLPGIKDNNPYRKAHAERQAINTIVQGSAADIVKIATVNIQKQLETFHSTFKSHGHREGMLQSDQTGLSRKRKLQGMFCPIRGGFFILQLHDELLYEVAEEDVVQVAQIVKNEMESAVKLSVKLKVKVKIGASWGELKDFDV
The data set is described as follows: Fluorescent-based IC50 DNA synthesis assay. Format: biochemical. The note with it: n=3. How it is done: The biochemical Polθ-pol IC50 assay was developed in a prior report. Briefly, 60 nM of the preannealed primer-template containing a 5′ Cy5 fluorophore-conjugated template strand (RP486-Cy5), a downstream complementary oligo conjugated with a 3′ Iowa BlackReg Dark quencher (RP343BHQRQ) and a primer strand (RP469D) was mixed with 50 μM 2’-deoxyribonucleoside triphosphates (dNTPs), 0.1 mg/mL bovine serum albumin (BSA), 0.01% NP-40, 10% glycerol, 1 mM dithiothreitol (DTT), 10 mM MgCl2, 25 mM TrisHCl pH 7.8 in the presence of 2.5% DMSO with or without various concentrations (7-point dilution series) of Polθ-pol small-molecule inhibitors at 37 °C in a volume of 40 μL. The reactions were initiated by the addition of 5 nM of purified recombinant human Polθ-pol (comprising amino acid residues 1792–2590). The reactions were terminated by the addition of 20 mM EDTA after 18 min, and the Cy5 fluorescence intensity was measured using a CLARIOstar (BMG Labtech) plate reader. Reactions were performed in triplicate and the % inhibition at each concentration of the respective compound was based on the mean.

Data set [2] can be described thus: Liver microsome stability. The data set is classed as in vitro ADME. As for the experimental part: Liver microsome membranes stability assay. Assays were conducted in 96-well (1 mL) polypropylene plates. In duplicate, test compounds (1 μM) were incubated in 0.5 mL of 100 mM potassium phosphate buffer (pH 7.4) with 0.5 mg/mL pooled liver microsomes from the test species (Gibco; mouse, CD1, male, MSMCPL; rat, Sprague-Dawley, male, RTMCPL; dog, Beagle, male, DGMCPL; human, mixed gender, HMMCPL), 2 mM tetrasodium NADPH and 3 mM MgCl2 for 60 min in a Labnet Vortemp incubator at 37 °C with gentle shaking. At five time points, […] of reaction mixtures were transferred to a 96-shallow-well stop plate on ice containing […] acetonitrile with 0.05 mM propafenone (internal standard). […] Verapamil was the positive reference compound (typical T1/2 = 3 min). Standard curves for test compounds were generated using 5 concentrations in duplicate. Stop plates were centrifuged at 2270 × g for 10 min and […] of the supernatants were transferred to a Waters Acquity UPLC […] 96-well sample plate, sealed with a cap mat and analyzed by UPLC/MS as described. GraphPad Prism v 5.04 was used for nonlinear fitting of time course data to generate T1/2 (min) and in vitro Clint (μL/min/mg) values.
(Microsomes from liver hold many membrane-bound enzymes, among them those of drug oxidation.)

Data set [3] concerns BRCA2^-/- HCT116. The data set is described as follows: Clonogenic (colony) survival assay. Particulars: for IC50: Homo sapiens; for fold lower IC50 in BRCA2–/– HCT116 cells compared to RTx-161 / selectivity against BRCA2–/– versus BRCA+/+ HCT116 cells: clonogenic survival. The data set is classed as cell-based, human. As for the experimental part: Colony survival assays were performed on 24-well plates. 800 cells/well of HCT, DLD1- BRCA2 −/–, PALB2 −/–, MEF BRCA1 […], PEO1, SNU-601, SKOV3- BRCA2 −/–, OVCAR8 cells and 200 cells/well of HCT, DLD1, MEF, SKOV3 wildtype cells were plated. For MDA pair, 500 cells/well of MDA436 and 100 cells of MDA231 were plated. Cells were treated with the compound 24 h after plating and the medium was replaced every two or 3 days until the colonies were ready for staining. Colonies were typically ready for staining in 10–12 days. For staining: Medium was removed from plates, and cells were rinsed with PBS. Fixation was carried out with Water:Ethanol:Acetic acid (5:4:1) for 30 min followed by staining of colonies with 0.5% crystal violet in Water:Ethanol (3:2) for 2 h at room temperature. The plates were rinsed with water and left for drying overnight at room temperature. Colonies were then counted manually, and response curves are shown as mean colony formation ± SEM. IC50 was calculated with GraphPad Prism using nonlinear regression analysis, inhibitor vs response (variable slope) equation.

The mark [4] stands for this setting: both sexes, pH 7.4, human liver microsomes, read-out: T1/2 human liver microsomes.
The mark [5] stands for this setting: male, Beagle, pH 7.4, dog liver microsomes, read-out: T1/2 dog liver microsomes.
Where [6] appears, read: male, CD1, pH 7.4, mouse liver microsomes, read-out: T1/2 mouse liver microsomes.
Setting [7] is: male, Sprague-Dawley, pH 7.4, rat liver microsomes, read-out: T1/2 rat liver microsomes.
[8] abbreviates: HCT-116, read-out: IC50 BRCA2^-/- HCT116 (μM).
Setting [9] is: both sexes, pH 7.4, human liver microsomes, read-out: Clint (uL/min/ mg) human.
The mark [10] stands for this setting: male, CD1, pH 7.4, mouse liver microsomes, read-out: Clint (uL/min /mg) mouse.

Read-outs that look alike come from different tables or passages of the source.

As for `[2H]C([2H])([2H])N(C(=O)Oc1c(N2CCN(CC(O)CNC)C2=O)cc(C(F)(F)F)cc1C(F)(F)F)c1ccc(F)cc1` (stereo not drawn) [RTx-283, 2-(3-(2-Hydroxy-3-(methylamino)propyl)-2-oxoimidazolidin-1-yl)-4,6-bis(trifluoromethyl)phenyl (4-fluorophenyl)(methyl-d3)carbamate], the figures for the IC50 in data set [1] and in data set [3] (setting [8]) were 6.1 nM and 0.03 µM, respectively. Besides, the half-life at 1 μM in data set [2] (setting [4]) is above 56 min; in data set [2] (setting [5]), 24.4 min; in data set [2] (setting [6]) it was 44.8 min; in data set [2] (setting [7]) it was above 60 min. Besides, in data set [3], the “fold lower IC50 in BRCA2–/– HCT116 cells compared to RTx-161” value is listed as above 10 fold. In addition, the “selectivity against BRCA2–/– versus BRCA+/+ HCT116 cells” value in data set [3] is listed as above 100 fold.
On to `[2H]C([2H])([2H])N(C(=O)Oc1c(N2CCN(CC(O)CN(C)C)C2=O)cc(C(F)(F)F)cc1C(F)(F)F)c1ccc(F)cc1` (stereo not drawn) [RTx-284, 2-{3-[3-(Dimethylamino)-2-hydroxypropyl]-2-oxoimidazolidin-1-yl}-4,6-bis(trifluoromethyl)phenyl N-(4-fluorophenyl)-N-(methyl-d3)-carbamate], for which the IC50 in data set [1] came out at 5.5 nM; in data set [3] (setting [8]), 0.11 µM. Moreover, the half-life at 1 μM in data set [2] (setting [4]) was 15.2 min; in data set [2] (setting [5]), 7.4 min; in data set [2] (setting [6]) it was 8 min; in data set [2] (setting [7]), above 54 min. Also, the “fold lower IC50 in BRCA2–/– HCT116 cells compared to RTx-161” value in data set [3] is on record as above 10 fold. Besides, the “selectivity against BRCA2–/– versus BRCA+/+ HCT116 cells” value in data set [3] is above 100 fold.
With `[2H]C([2H])([2H])N(C(=O)Oc1c(N2CCN(C[C@H](O)CN(C)C)C2=O)cc(C(F)(F)F)cc1C(F)(F)F)c1ccc(F)cc1` [RTx-303], the IC50 in data set [1] was 5.1 nM; in data set [3] (HCT-116, read-out: IC50(nM) HCT116 BRCA2 –/–) it was 0.0812 µM. Further, the microsomal CLint at 1 μM in data set [2] (setting [9]) is 213 µL/min/mg; in data set [2] (setting [10]), 204 µL/min/mg. The half-life at 1 μM in data set [2] (setting [4]) was determined as 7.3 min; in data set [2] (setting [6]), 7.1 min.
Turning to `[2H]C([2H])([2H])N(C(=O)Oc1c(N2CCN(C[C@H](O)CNC)C2=O)cc(C(F)(F)F)cc1C(F)(F)F)c1ccc(F)cc1` [RTx-315], the IC50 in data set [1] amounted to 13.6 nM. The figures for the microsomal CLint at 1 μM in data set [2] (setting [9]) and in data set [2] (setting [10]) were below 23 µL/min/mg and 39.1 µL/min/mg, respectively. The half-life at 1 μM was above 60 min in data set [2] (setting [4]) and 36.3 min in data set [2] (setting [6]).
